Tests used:
Format in all cases: in vivo, rat
[1] = system: Male Wistar rats; assay: Ketamine-induced psychomotor activity (locomotor activity, total distance traveled); conditions: mGluR2/3 agonist 1 mpk; for whether ketamine increased psychomotor activity (locomotor response): FIG. 2, first 60 minutes after ketamine or saline, 5-HT2a antagonist 0.2 mpk
Description: (§1) Compounds with antipsychotic efficacy are known to block Ketamine-induced psychomotor activity in rats (Bardi et al., Behavioural Pharmacology (2007), 18(2), 103-118). Male Wistar rats were received on site and housed for 7 days with food and water ad libitum. On the day of testing, animals were given vehicle (water for mGluR2/3 agonist, 1% Tween for 5-HT2A antagonist), the 5-HT2A antagonist volinanserin (0.2 mpk), the mGluR2/3 agonist (−)-2-oxa-4-aminobicyclo[3.1.0]hexane-4,6-dicarboxylate (1 mpk), or both the 5-HT2A antagonist (0.2 mpk) and the mGluR2/3 agonist (1 mpk) and placed in locomotor activity monitors. Thirty minutes later animals received a subcutaneous injection of saline or 37.5 mg/kg Ketamine and placed back into the'locomotor activity monitors for 90 minutes. Total distance traveled was used to assess locomotor behavior. The distance traveled is summed over the ninety minutes after ketamine or saline treatment.
Similarly, locomotor response was determined over the first 60 minutes after receiving ketamine or saline as a function of treatment with vehicle, the 5-HT2a antagonist (0.2 mpk), the mGluR2/3 agonist (1 mpk), or the 5-HT2a antagonist (0.2 mpk)+the mGluR2/3 agonist (1 mpk).

[2] = system: Male Wistar rats; assay: MK-801-induced psychomotor activity (locomotor activity, total distance traveled); conditions: 5-HT2A antagonist 0.2 mpk, mGluR2/3 agonist 1 mpk; for reduction of the response to MK-801: 90 minutes after 0.2 mg/kg s.c. MK-801; for psychomotor activity, total distance traveled after MK-801: summed over 90 minutes after 0.2 mg/kg s.c. MK-801, control≃200 cm, MK-801 alone≃2000 cm
Description: Male Wistar rats were received on site and housed for 7 days with food and water ad libitum. […] Thirty minutes later animals received a subcutaneous injection of saline or 0.2 mg/kg MK-801 and were placed back into the locomotor activity monitors for 90 minutes. Total distance traveled was used to assess locomotor behavior. The distance traveled is summed over the ninety minutes after MK-801 or saline treatment.

[3] = system: Male Wistar rats; assay: Amphetamine-induced psychomotor activity (locomotor activity, total distance traveled); conditions: FIG. 3; summed over 90 minutes after 1.5 mg/kg s.c. amphetamine; 5-HT2a antagonist 0.2 mpk, mGluR2/3 agonist 1 mpk
Description: as §1, with “amphetamine-induced” for “Ketamine-induced”, “1.5” for “37.5”, “amphetamine” for “Ketamine”, “the locomotor” for “the'locomotor”, “amphetamine” for “ketamine”

Row | SMILES | whether ketamine increased psychomotor activity (locomotor response) [1] | reduction of the response to MK-801 [2] | psychomotor activity, total distance traveled after MK-801 [2] | influence on amphetamine-induced psychomotor activity [3] | response to ketamine (psychomotor activity, distance traveled) relative to the 0-0-Ketamine group ([1]; FIG. 1, summed over 90 minutes after 37.5 mg/kg s.c. ketamine, 5-HT2A antagonist 0.2 mpk, given 30 min before)
1 | COc1cccc([C@H](O)C2CCN(CCc3ccc(F)cc3)CC2)c1OC [5-HT2A antagonist, (+)-alpha-(2,3-dimethoxyphenyl)-1-[2-(4 fluorophenyl)ethyl]-4-piperidine methanol] | ketamine increased psychomotor activity | Neither the mGluR2/3 agonist nor the 5-HT2A antagonist given alone reduced the response to MK-801 | ~2500 cm | did not influence amphetamine-induced psychomotor activity | –
2 | NC1(C(=O)O)COC2C(C(=O)O)C21 (single isomer, unassigned; (-)) [mGluR2/3 agonist, (−)-2-oxa-4-aminobicyclo[3.1.0]hexane-4,6-dicarboxylate] | ketamine increased psychomotor activity | Neither the mGluR2/3 agonist nor the 5-HT2A antagonist given alone reduced the response to MK-801 | ~1900 cm | did not influence amphetamine-induced psychomotor activity | decreased the response to ketamine
